# Assay results reported in patent publication EP0499648A1, “Enzymatically debranched starches as tablet excipients” (National Starch and Chemical Investment Holding Corporation, priority 1991, dated 1992).
# What was measured:
# [1] = Direct compression tabletting of APAP formula: compression profile (tablet hardness vs. press pressure setting); assay type: physicochemical; settings: 64% APAP, 34.75% binder
# Experimental: (§1) Direct compression tabletting in a laboratory scale tablet press (Stokes, Model B-2, 16 station rotary tablet press with 3/8'' standard concave punches, obtained from Stokes Co., Warminster, PA) was used to prepare tablets from the following formula: […]
# All ingredients except the binder were dry blended, screened through a 10 mesh sieve and blended with the binder.
# (§2) Tablets weighing from 360-460 mg were formed in the tablet press at pressure settings from A (low) to I (high) by adjusting the weight setting for each pressure setting. Compressibility is expressed as a profile obtained by increasing the pressure setting until the accompanying increases in the tablet hardness measurements leveled off. Tablet hardness was determined on a hydraulic tablet hardness tester (Delamar, Model PT 1000, obtained from VanKel Industries, Edison, New Jersey) in units of Kg/cm².
# [2] = Visual observation of direct compression APAP tablets (structural integrity, capping, splitting, surface); assay type: physicochemical; settings: direct compression APAP formula
# Experimental: as §1, §2
# The starch debranching and tabletting methods of Example 1 were employed to make direct compression tablets according to the formula of Example 1.
smiles,measurement,setting,value
"CC(=O)Nc1ccc(O)cc1 [100% APAP, Acetaminophen]",Tablet Hardness,[1]; machine position A (low pressure setting),0 Kg/cm²
same,Tablet Hardness,[1]; machine position B,0 Kg/cm²
same,Tablet Hardness,[1]; machine position C,0 Kg/cm²
same,Tablet Hardness,[1]; machine position D,0 Kg/cm²
same,Tablet Hardness,[1]; machine position E,0 Kg/cm²
same,Tablet Hardness,[1]; machine position F,0 Kg/cm²
same,Tablet Hardness,[1]; machine position G,0 Kg/cm²
same,Tablet Hardness,[1]; machine position H,0 Kg/cm²
same,Tablet Hardness,[1]; machine position I (high pressure setting),0 Kg/cm²
same,compressibility and structural integrity of tablets (visual observation),[2],a. Not compressible.
same,compressibility and structural integrity of tablets (visual observation),[2]; listed as acetaminophen (APAP),does not compress to form a tablet
